Results taken from patent US9493435B2, “IRE-1α inhibitors” (MannKing Corporation, priority 2009, dated 2016).

Columns and labels:
[1] = tested on: human myeloma RPMI8226 tumor xenografts; experiment: RPMI8226 xenograft efficacy model; assay type: in vivo, mouse; details: SCID mice bearing RPMI8226 xenografts, 0.75 mg/kg IV twice weekly
Procedure: SCID mice are implanted with tumor cells (human RPMI8226 myeloma cells) via IP, IV or SC routes based on the results from the xenograft model development studies (above). Mice are treated with compound or mock treated (vehicle) for a period of up to 4-5 weeks. Compound administration can be via IV, IP, PO or SC routes. In some cases, tunicamycin is administered via IP injection in order to stimulate stress in the animal. This stress mimics the stress an animal may undergo during times of tumor growth. The tunicaymycin injection mimics tumor growth during times of stress and permits evaluation of biomarkers which indicate the effectiveness of a compound (such as XBP-1 splicing) by RT-PCR, immunohistochemistry, or Western blots.
Mice are monitored for tumor growth, regression and general health. Tumors are collected and characterized by immunohistochemistry and/or FACS analysis. Tumor growth is measured by calipers, ultrasound, or by abdominal lavage. Biomarkers in the blood or tumor can evaluated (primarily XBP-1 splicing).
Tumor cells are cultured and injected IP, IV (tail vein) or SC (flank) in the mouse using a 21G needle in a volume of approx 100 μL. Mice are treated with compounds or vehicle alone as a control by IV, IP, SC or PO routes 5 days per week for up to 4-5 weeks. Blood is collected via retroorbital bleed (100 μA) at 2 time points (different eyes). […]

XBP-1 splicing = XBP-1 splicing in vivo in a model of ER stress (tunicamycin-treated SCID mice); parameters: species or system mouse; details: tunicamycin 1 mg/kg IP, 100, 50 or 25 mg/kg orally, 2 hour exposure, RT-PCR
Procedure: SCID mice were treated with tunicamycin 1 mg/kg IP. Compound no. 12-4 was administered orally two hours later at one of three doses: 100 mg/kg, 50 mg/kg, or 25 mg/kg (2 hour exposure) in 10% hydroxypropyl-beta-cyclodextrin (HPBCD). The total exposure to tunicamycin was 4 hours, and the total exposure to compound 12-4 was 2 hours.
Livers and kidneys were harvested and total RNA was prepared using Trizol. RT-PCR was performed using murine specific XBP1 primers flanking the 26-nt intron and products were separated on 4% agarose gel. The results are shown in FIG. 1B (liver) and FIG. 1C, in which each lane represents an individual mouse (n=4).

[2] = biological target: human IRE-1α (GST-IRE-1α) (Homo sapiens (Human), UniProt O75460); experiment: IRE-1α assay (cleavage of mini-XBP-1 mRNA stem-loop substrate); assay type: biochemical; details: average IC50 for inhibition of IRE-1α in vitro
Procedure: A fusion protein comprising glutathione S transferase (GST) and human IRE-1α (GST-IRE-1α) obtained from a 500 ml baculovirus-infected insect cell culture can be used to measure IRE-1α activity in vitro. Five μl of a reaction mixture comprising 1× reaction buffer (5× reaction buffer is 100 mM Hepes pH 7.5, 250 mM KOAc, 2.5 mM MgCl2), 3 mM DTT, and 0.4% polyethylene glycol water is added to each well of 384 well plates. Twenty-five nanoliters of a 1 mM test compound solution are added to test wells. […] Negative control wells contain only reaction mixture and test compound. After spinning the plates at 1200 rpm for 30 seconds, 3 μl of an IRE-1α human mini-XBP-1 mRNA stem-loop substrate [NT] ID NO:1), labeled with the fluorescent dye Cy5 at the [NT] end, are added to each well of a control plate. The plates are again spun at 1200 rpm for 30 seconds. […] The plates are covered with lids and incubated for one hour at 30° C. The plates are then transferred to an […] microplate reader. Data is analyzed using data analysis software, and the percent activity of IRE-1α is calculated.

[3] = tested on: IRE-1α-mediated XBP-1 splicing in human myeloma MM.1s cells; experiment: Cellular XBP-1 splicing assay in myeloma cells (RT-PCR); assay type: cell-based; details: Homo sapiens, MM1.S; average EC50, endogenous XBP-1 splicing in myeloma cells, DTT stress
Procedure: After an additional 45 minutes (2 hours total) with compound and DTT, the cells are harvested with TRIZOL® (a mono-phasic solution of phenol and guanidine isothiocyanate), and total RNA is prepared as directed by the manufacturer (Invitrogen). Human XBP-1 is amplified by RT-PCR with the following primers, which flank the 26 base unconventional intron excised by IRE-1α:
RT-PCR of unstressed (U) cells then generates the upper band. When cells are stressed (S) with the endoplasmic reticulum (ER) stressing agent DTT, IRE-1α is activated due to accumulating unfolded protein and the resulting RT-PCR product is 26 base pairs shorter.
Compounds which pass specificity assays are assayed for cellular EC50 using endogenous XBP-1 splicing in myeloma cells. XBP-1 is regulated through the excision of a 26 nucleotide intron from the XBP-1 mRNA by the highly specific endoribonuclease activity of IRE-1α. […] This splicing event is used to measure IRE-1α activity on XBP-1 mRNA in cells and tissues.
Briefly, compounds are incubated in the presence or absence of an ER stress agent (e.g., DTT), and the ratio of XBP-1u (unspliced) to XBP-1s (spliced) is quantified by RT-PCR.

Sequence of human IRE-1α (GST-IRE-1α) (O75460 19-977): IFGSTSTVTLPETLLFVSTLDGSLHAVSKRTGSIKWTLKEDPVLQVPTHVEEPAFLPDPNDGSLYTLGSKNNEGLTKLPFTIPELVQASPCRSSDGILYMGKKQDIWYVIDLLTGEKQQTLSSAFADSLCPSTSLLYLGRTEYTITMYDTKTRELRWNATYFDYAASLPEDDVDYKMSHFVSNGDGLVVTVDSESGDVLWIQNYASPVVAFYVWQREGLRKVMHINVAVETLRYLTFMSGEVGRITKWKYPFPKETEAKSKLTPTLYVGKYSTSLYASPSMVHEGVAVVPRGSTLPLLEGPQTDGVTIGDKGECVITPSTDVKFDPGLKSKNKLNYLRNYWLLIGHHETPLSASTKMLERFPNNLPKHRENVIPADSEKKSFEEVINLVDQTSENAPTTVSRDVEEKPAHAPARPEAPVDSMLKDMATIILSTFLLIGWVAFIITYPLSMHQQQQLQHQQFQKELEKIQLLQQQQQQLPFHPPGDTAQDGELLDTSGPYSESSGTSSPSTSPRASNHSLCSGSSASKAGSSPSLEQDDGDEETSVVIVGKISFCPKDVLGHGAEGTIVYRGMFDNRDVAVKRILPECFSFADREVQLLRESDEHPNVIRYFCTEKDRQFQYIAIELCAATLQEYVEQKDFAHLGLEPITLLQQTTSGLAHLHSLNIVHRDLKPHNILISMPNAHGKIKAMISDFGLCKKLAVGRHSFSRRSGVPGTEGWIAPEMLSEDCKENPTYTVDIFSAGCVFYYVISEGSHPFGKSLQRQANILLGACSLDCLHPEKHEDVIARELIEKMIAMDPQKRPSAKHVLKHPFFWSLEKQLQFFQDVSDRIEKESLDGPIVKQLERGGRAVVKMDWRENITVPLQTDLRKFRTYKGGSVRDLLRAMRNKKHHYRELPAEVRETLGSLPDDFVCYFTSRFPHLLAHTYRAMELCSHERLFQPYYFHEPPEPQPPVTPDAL

Row | SMILES | IC50 [2] [µM] | EC50 [3] [µM] | tumor growth [1] | inhibition of XBP-1 splicing in kidney (XBP-1 splicing; kidney) | inhibition of XBP-1 splicing in liver (XBP-1 splicing; liver)
1 | CC(C)C[C@H](NC(=O)[C@H](Cc1ccccc1)NC(=O)c1cnccn1)B(O)O [bortezomib] |  |  | suppression of tumor growth |  | 
2 | Cc1nc(-c2ccc3c(C=O)c(O)ccc3c2)sc1C(=O)N1CCN(C)CC1 [Compound 12-4] |  |  |  | dose-dependent inhibition | dose-dependent inhibition
3 | O=Cc1c(O)ccc2cc(-c3ccc(C(=O)NC4CCCNC4)cc3)ccc12 (stereo not drawn) [Compound 49] | < 0.1 | < 10 |  |  | 
4 | O=Cc1c(O)ccc2cc(N3CCOCC3)ccc12 [Compound 54] | > 1 | > 10 |  |  | 
5 | COc1ccc(CNC(=O)c2cccc(-c3ccc4c(C=O)c(O)ccc4c3)n2)cc1 [Compound 17] | < 1 | > 10 |  |  | 
6 | CN1CCN(c2ccc3ccc(O)c(C=O)c3c2)CC1 [Compound 87] | > 1 | > 10 |  |  | 
7 | O=Cc1c(O)ccc2cc(-c3ccc(C(=O)N4CC5CC4CN5)s3)ccc12 (stereo not drawn) [Compound 75] | < 0.1 | < 10 |  |  | 
8 | CN1CCCC(CNC(=O)c2ccc(-c3ccc4c(C=O)c(O)ccc4c3)s2)C1 (stereo not drawn) [Compound 69] | < 0.1 | < 10 |  |  | 
9 | CS(=O)(=O)N1CCN(c2ccc3c(C=O)c(O)ccc3c2)CC1 [Compound 92, 2-Hydroxy-6-(4-methanesulfonyl-piperazin-1-yl)-naphthalene-1-carbaldehyde] | > 1 | > 10 |  |  | 
10 | CN1CCN(C(=O)c2cc(-c3ccc4c(C=O)c(O)ccc4c3)ccn2)CC1 [Compound 66] | < 1 | < 10 |  |  | 
11 | CNC(=O)c1cccc(-c2ccc3c(C=O)c(O)ccc3c2)n1 [Compound 13] | < 0.1 | > 10 |  |  | 
12 | Cc1nc(-c2ccc3c(C=O)c(O)ccc3c2)sc1C(=O)N1CCN(C)CC1 [Compound 65] | < 0.1 | < 10 |  |  | 
13 | O=Cc1c(O)ccc2cc(-c3ccc(C(=O)NC4CCNCC4)cc3)ccc12 [Compound 48] | < 0.1 | < 10 |  |  | 
14 | CN1CCN(C(=O)c2ccc(-c3ccc4c(C=O)c(O)ccc4c3)cc2)CC1 [Compound 5] | < 0.1 | < 10 |  |  | 

Continued, in another order:

Row | IC50 [2] [µM] | EC50 [3] [µM] | SMILES | tumor growth [1] | inhibition of XBP-1 splicing in kidney (XBP-1 splicing; kidney) | inhibition of XBP-1 splicing in liver (XBP-1 splicing; liver)
15 | 1 | > 10 | O=Cc1c(O)ccc2cc(N3CCN(Cc4ccccn4)CC3)ccc12 [Compound 96, 2-Hydroxy-6-(4-pyridin-2-ylmethyl-piperazin-1-yl)-naphthalene-1-carbaldehyde] |  |  | 
16 | < 1 | 10 | CN1CCN(c2nc(-c3ccc4c(C=O)c(O)ccc4c3)cs2)CC1 [Compound 120] |  |  | 
17 | < 1 | > 10 | COCCNC(=O)c1ccc(-c2ccc3c(C=O)c(O)ccc3c2)s1 [Compound 15] |  |  | 
18 | < 1 | > 10 | CC(=O)NC1CCN(c2ccc3c(C=O)c(O)ccc3c2)CC1 [Compound 84] |  |  | 
19 | > 1 | > 10 | O=Cc1c(O)ccc2ccc(N3CCC(N4CCCCC4)C3)cc12 (stereo not drawn) [Compound 137] |  |  | 
20 | < 1 | < 10 | CCN(CC)C(=O)c1ccc(-c2ccc3c(C=O)c(O)ccc3c2)cc1 [Compound 2] |  |  | 
21 | > 1 | > 10 | CN(C)C1CCN(c2ccc3c(C=O)c(O)ccc3c2)C1 (stereo not drawn) [Compound 106] |  |  | 
22 | < 0.01 | < 10 | CN(C)C1CCN(c2ccc3c(C=O)c(O)ccc3c2)CC1 [Compound 85] |  |  | 
23 | < 1 | < 10 | Cc1nc(-c2ccc3c(C=O)c(O)ccc3c2)sc1C(=O)NC1CCN(C)CC1 [Compound 145] |  |  | 
24 | > 1 | < 10 | CN1CCC(NC(=O)c2ccc(-c3ccc4c(C=O)c(O)ccc4c3)cc2)CC1 [Compound 143] |  |  | 
25 | < 1 | < 10 | CCOC(=O)/C=C/c1ccc2c(C=O)c(O)ccc2c1 [Compound 22] |  |  | 
26 | < 1 | 10 | CNC(=O)c1ccc(-c2ccc3c(C=O)c(O)ccc3c2)s1 [Compound 11] |  |  | 
27 | < 1 | > 10 | O=Cc1c(O)ccc2cc(N3CCC(C(=O)N4CCOCC4)C3)ccc12 (stereo not drawn) [Compound 111, 2-Hydroxy-6-[3-(morpholine-4-carbonyl)-pyrrolidin-1-yl]-naphthalene-1-carbaldehyde] |  |  | 
28 | > 1 | > 10 | CNC(=O)C1CCN(c2ccc3ccc(O)c(C=O)c3c2)C1 (stereo not drawn) [Compound 131] |  |  | 
29 | > 1 | < 10 | O=Cc1c(O)ccc2ccc(N3CCOCC3)cc12 [Compound 88] |  |  | 
30 | < 1 | 10 | O=Cc1c(O)ccc2cc(/C=C/C(=O)O)ccc12 [Compound 23] |  |  | 
31 | < 1 | < 10 | CN1CCN(C(=O)/C=C/c2ccc3c(C=O)c(O)ccc3c2)CC1 [Compound 63] |  |  | 
32 | < 1 | < 10 | CN(C)C(=O)CCc1ccc2c(C=O)c(O)ccc2c1 [Compound 51] |  |  | 
